This note sets out measurements from US20110236395A1, “TREATMENT OF FIBROTIC EYE DISORDERS USING AN MMP2 INHIBITOR” (UNIVERSITY OF EAST ANGLIA, priority 2008, published 2011).

Some results are limits rather than exact numbers.

The data set concerns MMP2 gene expression in FHL 124 cells. Kind of data set: Quantitative real-time PCR of MMP2 gene expression after siRNA transfection. Type of data set: cell-based, human. To be noted: 100 nM siRNA. The protocol: FIG. 4. Validation of siRNA directed against specific inhibition of MMP2 for 24 hours using targeted siRNA techniques leads to a greater than 90% reduction in MMP2 gene expression. Furthermore, after 48 hours from initial MMP2 SiRNA transfection, MMP2 gene expression levels are still reduced by more than 80% in comparison with Scramble SiRNA controls. Each left hand bar of the bar pairs reports the result with Scramble siRNA (indicated as “Scramble SiRNA” in the key) and the right hand bar reports the result in the presence of MMP2 specific siRNA (indicated as “MMP2 SiRNA” in the key).
Total RNA was extracted from tissue and primary cultured cells (RNeasy micro kits; Qiagen, West Sussex, UK) in accordance with the manufacturer's instructions. In the initial step, RLT buffer (containing-mercaptoethanol) was added directly to phosphate buffered saline (PBS)-washed culture monolayers. Cultured cell lysates were removed with a cell scraper. Each sample was then transferred to an individual Eppendorf tube and passed through a needle and syringe. The remainder of the protocol was as described by the manufacturer and included a DNAse step. Quality control was maintained with an RNA analyzer (Bioanalyzer 2100; Agilent, West Lothian, UK) and an RNA lab chip (6000 Nano lab chip; Agilent) to ensure that 28S and 18S rRNA bands were clearly evident in total RNA samples. RNA was quantified with a spectrophotometer (ND-1000; NanoDrop, Wilmington, Del., USA). For the samples analyzed, the 260:280 ratio ranged from 1.8 to 2.2 (mean, 2.0). Where possible, total RNA was immediately used for cDNA generation or was briefly stored at −80° C. […]
Quantitative real-time PCR was used to analyze mRNA expression for all genes in FHL 124 cells (for a comprehensive description of MMPs and TIMPs primer/probe sets used, see Nuttall R. K. et al. (Mol Cancer Res (2003) 1, pages 333-345. Assuming 100% efficiency in the reverse transcription reaction, either 1 ng or 5 ng cDNA was used in real-time PCR reactions performed using a real-time PCR machine (ABI7700; Applied Biosystems). Reagent-based assays (Taq-Man Universal PCR Master Mix, No AmpErase UNG; Applied Biosystems) with all PCR reagents were used according to the manufacturer's instructions. The amount of amplification associated with priming from genomic DNA contamination was evaluated with control reverse transcription reactions containing all reagents without reverse transcriptase. […] The cycle number at which amplification entered the exponential phase (cycle threshold [CT]) was determined, and this number was used as an indicator for the amount of target RNA in each sample analyzed. […]
On the technique in general: Quantitative PCR measures a nucleic acid by following its amplification.

As to “siMMP2: Custom made MMP2 siRNA: sense 5′-GGACACACUAAAGAAGAUGTT-3′, antisense 5′-CAUCUUCUUUAGUGUGUCCTT-3′, purchased from Ambion (chemistry not given here)”, the “reduction in MMP2 gene expression” value reads like this: (24 hours in transfection conditions, vs negative control siRNA) “greater than 90%”; (24 hours in transfection conditions, vs negative control siRNA, listed as siRNA against MMP2) 90%; (48 hours from transfection, vs Scramble siRNA controls) “more than 80%”; (48 hours from transfection, vs Scramble siRNA controls, listed as siRNA against MMP2) more than 70%.
